Columns and labels:
[1] = Evaluation of slurry filterability by constant pressure filtration (average specific filtration resistance); type: physicochemical; details: slurry cooled to 1° C., filtrate volume 200 mL, filtration pressure 0.1 hPa
Description: The slurries obtained in Examples and Comparative Example were subjected to constant pressure filtration with a filtrate volume of 200 mL and a filtration pressure of 0.1 hPa and the filtration rate was measured. The average specific filtration resistance (αav) was calculated and used for the evaluation of filterability.

[2] = Median diameter measurement with particle size distribution analyzer; type: physicochemical; details: reduced coenzyme Q10 crystal obtained; Partica LA-960
Description: The median diameters of reduced coenzyme Q10 crystals obtained in Examples and Comparative Example were measured using the device described below. • Particle size distribution analyzer: Partica LA-960 <Percentage of Form II Crystal in Reduced Coenzyme Q10 Crystal>

[3] = Saturation concentration of crystal forms in alcohol; type: physicochemical; details: Form II crystal compared with Form I crystal
Excerpt: The alcohol is preferably a monohydric alcohol having 1 to 5 carbon atoms. Examples of a monohydric alcohol having 1 to 5 carbon atoms include methanol, ethanol, n-propanol, isopropanol, n-butanol, isobutanol, and n-pentanol. As the alcohol, ethanol is particularly preferable because the saturation concentration of Form II crystal is sufficiently lower than the saturation concentration of Form I crystal and is easy to handle. As the alcohol, those exemplified above may be used alone, or two or more thereof may be mixed and used.

[4] = compared with conventional reduced coenzyme Q10 Form I crystal; cited from earlier work
[5] = compared with oxidized coenzyme Q10; cited from earlier work

Compound	average specific filtration resistance (αav) [1]	Median diameter [2] [μm]	saturation concentration in an alcohol [3]	stability of crystal form [4]	oral absorbability [5]
COc1c(O)c(C)c(C/C=C(\C)CC/C=C(\C)CC/C=C(\C)CC/C=C(\C)CC/C=C(\C)CC/C=C(\C)CC/C=C(\C)CC/C=C(\C)CC/C=C(\C)CCC=C(C)C)c(O)c1OC [Example 3, reduced coenzyme Q10]	0.48×10^10 m/kg	107.3	–	–	–
COc1c(O)c(C)c(C/C=C(\C)CC/C=C(\C)CC/C=C(\C)CC/C=C(\C)CC/C=C(\C)CC/C=C(\C)CC/C=C(\C)CC/C=C(\C)CC/C=C(\C)CCC=C(C)C)c(O)c1OC [reduced coenzyme Q10 Form II crystal, reduced coenzyme Q10]	–	–	lower than the saturation concentration of a Form I crystal	much more stable than the conventional reduced coenzyme Q10	–
COc1c(O)c(C)c(C/C=C(\C)CC/C=C(\C)CC/C=C(\C)CC/C=C(\C)CC/C=C(\C)CC/C=C(\C)CC/C=C(\C)CC/C=C(\C)CC/C=C(\C)CCC=C(C)C)c(O)c1OC [Comparative Example 1, reduced coenzyme Q10]	3.4×10^10 m/kg	68.2	–	–	–
COc1c(O)c(C)c(C/C=C(\C)CC/C=C(\C)CC/C=C(\C)CC/C=C(\C)CC/C=C(\C)CC/C=C(\C)CC/C=C(\C)CC/C=C(\C)CC/C=C(\C)CCC=C(C)C)c(O)c1OC [Example 1, reduced coenzyme Q10]	0.47×10^10 m/kg	115.3	–	–	–
COc1c(O)c(C)c(C/C=C(\C)CC/C=C(\C)CC/C=C(\C)CC/C=C(\C)CC/C=C(\C)CC/C=C(\C)CC/C=C(\C)CC/C=C(\C)CC/C=C(\C)CCC=C(C)C)c(O)c1OC [Example 2, reduced coenzyme Q10]	0.98×10^10 m/kg	87.6	–	–	–
COc1c(O)c(C)c(C/C=C(\C)CC/C=C(\C)CC/C=C(\C)CC/C=C(\C)CC/C=C(\C)CC/C=C(\C)CC/C=C(\C)CC/C=C(\C)CC/C=C(\C)CCC=C(C)C)c(O)c1OC [reduced coenzyme Q10]	–	–	–	–	higher oral absorbability than that of oxidized coenzyme Q10
